Test systems include A549; A498; 786-0; SR; SN12C; HL-60; BT-549; HCC 2998; CCRF-CEM; SF-295; MCF7; SK-MEL-5; SNB-75; NCI-H23; CAKI-1; UACC-62; NCI-H460; MDA-N; LOX IMVI; OVCAR-4.
What all share (assay): inhibition of tumour cell growth, NCI panel, 48 h

Structures are written as SMILES.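 Exposure lasted 48 hours, with cells grown in 96-well plates and compounds tested at five concentrations. At the GI50, growth is halved.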 The source made the active and inactive calls. Rule as the data show it: active = GI50 up to about 1.1 µM and inactive = higher.

`O=C(CCCn1ccnc1[N+](=O)[O-])NCCn1ccnc1`: the GI50 with A549, in the assay on A498, in the assay on 786-0, with SR, in the assay with SN12C and in the assay with HL-60 was > 100 µM (inactive) in each case. Besides, the GI50 with BT-549, in the assay on HCC 2998, in the assay with CCRF-CEM, in the assay on SF-295, in the assay with MCF7 and in the assay on SK-MEL-5 was > 100 µM (inactive) throughout. Besides, the GI50 in the assay on SNB-75 is > 100 µM (inactive); with NCI-H23, > 100 µM (inactive); in the assay on CAKI-1, > 100 µM (inactive); with UACC-62, > 100 µM (inactive); in the assay on NCI-H460, > 100 µM (inactive); with MDA-N, > 10 µM (inactive).

Turning to `O=[N+]([O-])c1ccc(OP(=O)(O)OCC2OC(CP(=O)(O)O)C(O)C2O)cc1` (configuration not stated), the GI50 in the assay with A549, in the assay with A498, with 786-0, in the assay on SR, with SN12C and with HL-60 was > 100 µM (inactive) in each case. Moreover, the GI50 in the assay on BT-549, in the assay with HCC 2998, with CCRF-CEM, in the assay with LOX IMVI, in the assay with SF-295 and in the assay with MCF7 was > 100 µM (inactive) throughout. The GI50 in the assay on SK-MEL-5, in the assay on NCI-H23, with CAKI-1, in the assay on OVCAR-4, in the assay on UACC-62 and with NCI-H460 was > 100 µM (inactive) in each case. Moreover, the GI50 in the assay with MDA-N was > 100 µM (inactive).

Turning to `Cc1nnc2sc(-c3ccc([N+](=O)[O-])o3)nn12`, the GI50 with A549 is 37.8 µM (inactive); in the assay on A498, 45.5 µM (inactive); in the assay with 786-0, 10.3 µM (inactive); with SR, 8.61 µM (inactive); with SN12C, 11.6 µM (inactive); in the assay with HL-60, 2.47 µM (inactive). Also, the GI50 with BT-549 was 10.7 µM (inactive); in the assay on HCC 2998, 12.5 µM (inactive); in the assay with CCRF-CEM, 1.85 µM (inactive); in the assay on LOX IMVI it was 3.56 µM (inactive); in the assay with SF-295, 16.9 µM (inactive); in the assay with MCF7, 7.18 µM (inactive). Also, the GI50 with SK-MEL-5 was 11.8 µM (inactive); in the assay with NCI-H23 it was 15.5 µM (inactive); with CAKI-1 it was 10 µM (inactive); with OVCAR-4, 15 µM (inactive); in the assay on UACC-62, 10.4 µM (inactive); with NCI-H460, 17.9 µM (inactive). In addition, the GI50 in the assay on MDA-N is 5.96 µM (inactive).

In the case of `C[C@]12CCC(=O)C=C1CC[C@@H]1[C@@H]2CC[C@]2(C)C(=O)/C(=C/c3ccc([N+](=O)[O-])cc3)C[C@@H]12`, the GI50 was 8.36 µM (inactive) with A549; 2.3 µM (inactive) in the assay on A498; 18.6 µM (inactive) with 786-0; 2.9 µM (inactive) in the assay with SR; 46.3 µM (inactive) in the assay on SN12C; 3.51 µM (inactive) in the assay on HL-60. The GI50 in the assay with BT-549 was 6.3 µM (inactive); with HCC 2998, 63.2 µM (inactive); in the assay with CCRF-CEM it was 8.97 µM (inactive); with LOX IMVI, 37.9 µM (inactive); in the assay on SF-295, 63.7 µM (inactive); in the assay with MCF7 it was 0.621 µM (active). Further, the GI50 in the assay with SK-MEL-5 is 3.47 µM (inactive); in the assay on SNB-75, 42 µM (inactive); in the assay on NCI-H23 it was 27.8 µM (inactive); in the assay with CAKI-1, 8.95 µM (inactive); with UACC-62 it was 3.36 µM (inactive); in the assay on NCI-H460, 9.57 µM (inactive). Besides, the GI50 in the assay with MDA-N was 6.31 µM (inactive).

For `CCNC(=S)N/N=C/c1cc([N+](=O)[O-])ccc1O`, the GI50 in the assay on A549 is 33.4 µM (inactive); in the assay with A498 it was 13.2 µM (inactive); in the assay on 786-0 it was 20.5 µM (inactive); with SR, 10.9 µM (inactive); in the assay with SN12C, 31.5 µM (inactive); in the assay with HL-60, 11.9 µM (inactive). Moreover, the GI50 with BT-549 was 36.9 µM (inactive); in the assay on HCC 2998, 16.2 µM (inactive); in the assay with CCRF-CEM, 4.47 µM (inactive); in the assay on LOX IMVI, 15.7 µM (inactive); in the assay with SF-295, 35.6 µM (inactive); with MCF7 it was 0.307 µM (active). For the same compound, the GI50 in the assay with SK-MEL-5 was 10.9 µM (inactive); in the assay on SNB-75, 52 µM (inactive); with NCI-H23 it was 41.6 µM (inactive); in the assay on OVCAR-4, 15.6 µM (inactive); in the assay on UACC-62, 17.5 µM (inactive); with NCI-H460 it was 9.27 µM (inactive). For the same compound, the GI50 in the assay with MDA-N is 46.5 µM (inactive).

As for `COC(=O)Cn1cnc2c(Cl)nc(Nc3ccccc3)nc21`, the GI50 in the assay on A549 is 79.6 µM (inactive); in the assay with A498, > 100 µM (inactive); with 786-0, > 100 µM (inactive); in the assay with SR, 40.1 µM (inactive); in the assay with SN12C, 28.8 µM (inactive); with HL-60 it was 22.4 µM (inactive). Also, the GI50 with BT-549 is 86.5 µM (inactive); in the assay on HCC 2998 it was 6.52 µM (inactive); in the assay on CCRF-CEM, 27.2 µM (inactive); in the assay with LOX IMVI, 17.9 µM (inactive); in the assay with SF-295 it was > 100 µM (inactive); in the assay on MCF7, 76.2 µM (inactive). The GI50 is 39 µM (inactive) with SK-MEL-5; > 100 µM (inactive) in the assay with SNB-75; 87.3 µM (inactive) in the assay with OVCAR-4; 22.6 µM (inactive) in the assay on UACC-62; 32.8 µM (inactive) with NCI-H460; 30.8 µM (inactive) with MDA-N.

In the case of `COc1cc(/C=C2\N=C(c3ccccc3)N(c3nc4c(OC)ccc(OC)c4s3)C2=O)ccc1O`, the GI50 in the assay with A549 was 69.3 µM (inactive); with A498, > 100 µM (inactive); with 786-0, 39.4 µM (inactive); in the assay with SR it was 30 µM (inactive); in the assay on SN12C, > 100 µM (inactive); in the assay with HL-60 it was 36.6 µM (inactive). In addition, the GI50 in the assay with BT-549 was 96.4 µM (inactive); with HCC 2998, 33.8 µM (inactive); in the assay on CCRF-CEM, 28.1 µM (inactive); with LOX IMVI, 24 µM (inactive); in the assay on SF-295, 79.1 µM (inactive); in the assay with MCF7 it was 17.3 µM (inactive). In addition, the GI50 in the assay with SK-MEL-5 is 54.8 µM (inactive); in the assay with SNB-75 it was 8.34 µM (inactive); in the assay with NCI-H23 it was > 100 µM (inactive); in the assay with CAKI-1, > 100 µM (inactive); in the assay with UACC-62, 33 µM (inactive); in the assay on NCI-H460, 51.4 µM (inactive). The GI50 with MDA-N was 24.1 µM (inactive).

As for `O=C(NNC(=S)Nc1ccccc1)c1csc(NC(=S)NC2CCCCC2)n1`, the GI50 in the assay on A549 is > 100 µM (inactive); in the assay on A498, > 100 µM (inactive); with 786-0, 68.7 µM (inactive); in the assay with SR, 49.5 µM (inactive); in the assay on SN12C, 91.4 µM (inactive); in the assay on HL-60, > 100 µM (inactive). Further, the GI50 in the assay on BT-549 was 33 µM (inactive); in the assay on HCC 2998, 10.5 µM (inactive); with CCRF-CEM it was 54.8 µM (inactive); in the assay with LOX IMVI, 26.6 µM (inactive); in the assay with SF-295, > 100 µM (inactive); in the assay with MCF7 it was 64.9 µM (inactive). Besides, the GI50 is 17.4 µM (inactive) in the assay with SK-MEL-5; 47.1 µM (inactive) with SNB-75; > 100 µM (inactive) in the assay on NCI-H23; > 100 µM (inactive) in the assay on CAKI-1; 38.9 µM (inactive) with UACC-62; 50.8 µM (inactive) in the assay on MDA-N.

In the case of `O=C(CC(=O)N1N=C(c2ccccc2)C(/N=N/c2ccc(S(=O)(=O)CCOS(=O)(=O)O)cc2)C1=O)Nc1ccc(Cl)cc1` (configuration not stated), the GI50 was > 100 µM (inactive) in the assay on A549; > 100 µM (inactive) with A498; > 100 µM (inactive) in the assay with 786-0; > 100 µM (inactive) in the assay with SR; 86.5 µM (inactive) in the assay with SN12C; > 100 µM (inactive) in the assay with HL-60. For the same compound, the GI50 was > 100 µM (inactive) in the assay with BT-549; 59.4 µM (inactive) with HCC 2998; 49.5 µM (inactive) in the assay on CCRF-CEM; 84.1 µM (inactive) with LOX IMVI; > 100 µM (inactive) in the assay with SF-295; > 100 µM (inactive) in the assay with MCF7. Also, the GI50 with SK-MEL-5, in the assay with SNB-75, in the assay with NCI-H23, in the assay with CAKI-1, in the assay with UACC-62 and in the assay with NCI-H460 was > 100 µM (inactive) in each case. Besides, in the assay with MDA-N, the GI50 is > 100 µM (inactive).

With `COc1ccc2c(-c3ccc(O)cc3)c(Oc3ccccc3)c(=O)oc2c1`, the GI50 is 8.17 µM (inactive) in the assay with A549; > 31.4 µM (inactive) in the assay on A498; 12.3 µM (inactive) in the assay on 786-0; 3.24 µM (inactive) with SR; 7.96 µM (inactive) with HL-60; 95.9 µM (inactive) in the assay with BT-549. Moreover, the GI50 is 18.3 µM (inactive) in the assay on HCC 2998; 3.96 µM (inactive) in the assay with CCRF-CEM; 8.61 µM (inactive) in the assay on LOX IMVI; 25.5 µM (inactive) with SF-295; 4.61 µM (inactive) in the assay on MCF7; 3.95 µM (inactive) in the assay with SK-MEL-5. Besides, the GI50 was > 33.9 µM (inactive) with SNB-75; 2.63 µM (inactive) in the assay with NCI-H23; 2.72 µM (inactive) in the assay on CAKI-1; 9.62 µM (inactive) with OVCAR-4; > 24.4 µM (inactive) with UACC-62; 11.9 µM (inactive) with NCI-H460. In addition, in the assay with MDA-N, the GI50 is > 100 µM (inactive).

For the origin of these results see ChEMBL document CHEMBL1201862, “PubChem BioAssay data set” (2004).
